# Data as given in patent publication US4563477A, “Process for the preparation of alpha-(N-pyrrolyl)-derivative acids, the salts and esters thereof; alpha-(N-pyrrolyl)-phenylacetic acids, the esters thereof, pharmaceutical compositions containing them and therapeutical applications thereof” (Antibioticos, S.A., priority 1982, dated 1986).
# System: 0.5% acetic acid induced contorsions in NMRI mice
# Test: Peripheral analgesic activity: 0.5% acetic acid induced contorsions in NMRI mice
# Type: in vivo
# Settings: male NMRI mice, n = 10, 100 mg/kg p.o., 0.5% acetic acid i.p.
# Experimental: The experimental method consists of injecting an irritant, such as acetic acid, into the […] peritoneum and provoking obviously appreciable painful contorsions such as stretching of the rear paws and twisting of the dorso-abdominal muscles.
# The material used consisted of lots of NMRI mice bred in our SPF breeding centre under constant temperature and humidity conditions of 23°±0.5° C. and 70±5%.
# Standard: acetylsalicylic acid
# Vehicle: propylene glycol/water--40/60 v.
# Transparent plastic cages.
# With this material the mice were randomly distributed into groups of 10 animals. The test order and the treatment to be given to each group was also randomised. […]
# The control lot received the vehicle. As standard, acetylsalicylic acid at a dose level of 100 mg/kg, suspended in the same vehicle and administered p.o., was used.
# After 30 minutes, 0.25 ml per 20 g body weight of a 0.5% acetic acid solution was administered intraperitoneally.
# The number of painful contorsions were counted and, for evaluating the results, the means of the number of stretches of each lot were calculated and were expressed as inhibition percentages relative to the control, as per the following equation: [formula] where c is the mean of the number of stretches of the control group and b is the mean of the number of stretches of the treated group.
# The statistical significance between the lots may be ascertained with the Duncan-Kramer test, with p<0.05.
# 0.5% acetic acid induced contorsions in NMRI mice male (n = 10)
row,SMILES,% inhibition relative to control (contorsions)
1,O=C(O)C(c1ccccc1)n1cccc1 (racemic) [DL(±)-alpha-(N-pyrrolyl)-phenylacetic acid],79.7%
2,O=C(O)C(c1ccc(O)cc1)n1cccc1 (racemic) [Dibenzylammonium DL(±)-alpha-(N-pyrrolyl)-p-hydroxy-phenylacetate],72.3%
3,"CC(=O)Oc1ccccc1C(=O)O [Acetylsalicylic acid, reference compound]",37.27%
4,O=C(O)[C@@H](c1ccccc1)n1cccc1 [D(+)-alpha-(N-pyrrolyl)-phenylacetic acid],70.9%
5,O=C(O)[C@H](c1ccccc1)n1cccc1 [L(-)-alpha-(N-pyrrolyl)-phenylacetic acid],76.2%

# Same assay, conditions: male NMRI mice, n = 10, 100 mg/kg p.o., 0.5% acetic acid i.p. after 30 minutes, observed half an hour; mean ± s.e.; control 27.1 ± 4.3; Duncan Kramer test p < 0.05
row,SMILES,No contorsions (X ± s.e.)
1,O=C(O)C(c1ccccc1)n1cccc1 (racemic) [DL(±)-alpha-(N-pyrrolyl)-phenylacetic acid],5.5 ± 1.8
2,O=C(O)C(c1ccc(O)cc1)n1cccc1 (racemic) [Dibenzylammonium DL(±)-alpha-(N-pyrrolyl)-p-hydroxy-phenylacetate],7.5 ± 2.2
3,"CC(=O)Oc1ccccc1C(=O)O [Acetylsalicylic acid, reference compound]",17 ± 3.5
4,O=C(O)[C@@H](c1ccccc1)n1cccc1 [D(+)-alpha-(N-pyrrolyl)-phenylacetic acid],7.9 ± 2.6
5,O=C(O)[C@H](c1ccccc1)n1cccc1 [L(-)-alpha-(N-pyrrolyl)-phenylacetic acid],6.4 ± 1.9

# Same assay, conditions: male NMRI mice, n = 10, 100 mg/kg p.o., 0.5% acetic acid i.p.; control 10/10
row,SMILES,No mice with contorsions
1,O=C(O)C(c1ccccc1)n1cccc1 (racemic) [DL(±)-alpha-(N-pyrrolyl)-phenylacetic acid],7/10
2,O=C(O)C(c1ccc(O)cc1)n1cccc1 (racemic) [Dibenzylammonium DL(±)-alpha-(N-pyrrolyl)-p-hydroxy-phenylacetate],9/10
3,"CC(=O)Oc1ccccc1C(=O)O [Acetylsalicylic acid, reference compound]",10/10
4,O=C(O)[C@@H](c1ccccc1)n1cccc1 [D(+)-alpha-(N-pyrrolyl)-phenylacetic acid],8/10
5,O=C(O)[C@H](c1ccccc1)n1cccc1 [L(-)-alpha-(N-pyrrolyl)-phenylacetic acid],8/10

# System: ADP induced platelet aggregation
# Test: "Ex vivo" platelet anti-aggregation activity in rats (ADP induced platelet aggregation, Born aggregometer)
# Set-up: species or system Wistar rats, ITA 177 SPF
# Settings: 100 mg/kg p.o., n = 5, blood drawn 5 hours after administration, control 86.4 ± 2.15, Duncan Kramer test p < 0.05
# Experimental: Acetylsalicyclic acid at a dose level of 100 mg/kg p.o. was used as standard.
# The products to be tested were administered at the maximum dose of 200 mg/kg, p.o.
# Both the standard and the products were administered dissolved or suspended in a 10 ml/kg Tween solution.
# The animals were fasted during the test and for 17 hours prior thereto, but had water "ad libitum".
# The % aggregation was calculated measuring the difference in mm in the recorder between the initial aggregation stage and the height of the specimen curve 6 minutes after the onset of aggregation.
# This figure, therefore, is calculated as a percentage, taking as 100% the figure in mm of the difference between the platelet rich plasma (prp) and the platelet poor plasma (ppp) obtained in balancing the apparatus for the specimen under examination.
# "Ex vivo" platelet anti-aggregation activity in rats
row,SMILES,Platelet aggregation %
1,O=C(O)C(c1ccccc1)n1cccc1 (racemic) [DL(±)-alpha-(N-pyrrolyl)-phenylacetic acid],25.3 ± 9.28%
2,CCOC(=O)C(c1ccccc1)n1cccc1 (racemic) [Ethyl DL(±)-alpha-(N-pyrrolyl)-phenylacetate],42.0 ± 2.58%
3,"CC(=O)Oc1ccccc1C(=O)O [Acetylsalicylic acid, reference compound]",20.1 ± 1.49%
4,O=C(O)Cn1cccc1 [Alpha-(N-pyrrolyl)-acetic acid],63.1 ± 3.32%
5,"CCCCC1C(=O)N(c2ccccc2)N(c2ccccc2)C1=O [Phenylbutazone, reference compound]",58.2 ± 7.35%

# Same assay, conditions: 100 mg/kg p.o., n = 5, blood drawn 5 hours after administration, relative to control
row,SMILES,"Platelet aggregation, % inhibition"
1,O=C(O)C(c1ccccc1)n1cccc1 (racemic) [DL(±)-alpha-(N-pyrrolyl)-phenylacetic acid],70.7%
2,CCOC(=O)C(c1ccccc1)n1cccc1 (racemic) [Ethyl DL(±)-alpha-(N-pyrrolyl)-phenylacetate],51.4%
3,"CC(=O)Oc1ccccc1C(=O)O [Acetylsalicylic acid, reference compound]",76.7%
4,O=C(O)Cn1cccc1 [Alpha-(N-pyrrolyl)-acetic acid],27.0%
5,"CCCCC1C(=O)N(c2ccccc2)N(c2ccccc2)C1=O [Phenylbutazone, reference compound]",32.6%
